Experimental data as given in patent US9796700B2 (Celgene CAR LLC, priority 2013, dated 2017).

molecular target: Erk1 (Homo sapiens (Human), UniProt P27361); assay: Protein Mass Modification Assay (intact protein MALDI); assay type: binding
In short: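 Human Erk1 was incubated 60 min at room temperature with a 10-fold molar excess of compound, then analysed as intact protein by MALDI with sinapinic acid matrix. The centroid mass shift versus untreated protein was divided by compound molecular weight to give percent modified protein.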

Chain of Erk1 (P27361 whole entry, looked up): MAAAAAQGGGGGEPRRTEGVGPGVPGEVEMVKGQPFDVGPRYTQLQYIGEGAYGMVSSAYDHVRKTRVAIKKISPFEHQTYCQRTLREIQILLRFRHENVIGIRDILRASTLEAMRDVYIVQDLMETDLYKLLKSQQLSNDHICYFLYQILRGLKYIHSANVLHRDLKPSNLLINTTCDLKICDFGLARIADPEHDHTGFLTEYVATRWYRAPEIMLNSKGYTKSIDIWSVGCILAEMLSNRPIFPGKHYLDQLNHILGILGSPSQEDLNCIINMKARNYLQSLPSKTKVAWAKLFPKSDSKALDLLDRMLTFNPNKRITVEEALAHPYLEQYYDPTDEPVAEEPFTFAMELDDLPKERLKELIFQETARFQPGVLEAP

| SMILES | ERK1 Mass Mod (%) |
| --- | --- |
| C=CC(=O)Nc1cc(C)ccc1Nc1nc(Nc2cc(NCCOC)nc(OC)c2)ncc1C(F)(F)F [Compound I-294, N-(2-((2-((2-methoxy-6-((2-methoxyethyl)amino)pyridin-4-yl)amino)-5-(trifluoromethyl)pyrimidin-4-yl)amino)-5-methylphenyl)acrylamide] | E (key: E: provided a mass modification of ≧70%; F: provided a mass modification of 31-69%; G: proived a mass modification ≦30%) |
| C=CC(=O)Nc1ccccc1Nc1nc(Nc2ccc(N(CCCN)C(C)=O)cc2OC)ncc1Cl [Compound I-167, N-(2-((2-((4-(N-(3-aminopropyl)acetamido)-2-methoxyphenyl)amino)-5-chloropyrimidin-4-yl)amino)phenyl)acrylamide] | E (provided a mass modification of ≧70%) |
| C=CC(=O)Nc1ccccc1Nc1nc(Nc2cc(OC)ccc2C)ncc1C(F)(F)F [Compound I-340, N-(2-((2-((5-methoxy-2-methylphenyl)amino)-5-(trifluoromethyl)pyrimidin-4-yl)amino)phenyl)acrylamide] | E (provided a mass modification of ≧70%) |
| C=CC(=O)Nc1cc(C)ccc1Nc1nc(Nc2ccnc(Cl)c2)ncc1Cl [Compound I-230, N-(2-((5-chloro-2-((2-chloropyridin-4-yl)amino)pyrimidin-4-yl)amino)-5-methylphenyl)acrylamide] | E (provided a mass modification of ≧70%) |
| C=CC(=O)Nc1ccccc1Nc1nc(Nc2cc(C(=O)NOC)ccc2C#N)ncc1C(F)(F)F [Compound I-72, 3-((4-((2-Acrylamidophenyl)amino)-5-(trifluoromethyl)pyrimidin-2-yl)amino)-4-cyano-N-methoxybenzamide] | E (provided a mass modification of ≧70%) |
| C=CC(=O)N[C@H]1CCCC[C@@H]1Nc1nc(N[C@H]2CCCN(C(=O)CO)C2)ncc1C(F)(F)F (racemic) [Compound I-27, Rac-N-(2-((2-(((R)-1-(2-hydroxyacetyl)piperidin-3-yl)amino)-5-(trifluoromethyl)pyrimidin-4-yl)amino)-trans-cyclohexyl)acrylamide] | F (provided a mass modification of 31-69%) |
| C/C=C/C(=O)Nc1cc(F)ccc1Nc1nc(N[C@@H]2CCC[C@H](C(N)=O)C2)ncc1C(F)(F)F (racemic) [Compound I-6, Rac-(E)-3-((4-((2-(but-2-enamido)-4-fluorophenyl)amino)-5-(trifluoromethyl)pyrimidin-2-yl)amino)-cis-cyclohexanecarboxamide] | E (provided a mass modification of ≧70%) |
| C=CC(=O)Nc1ccccc1Nc1nc(Nc2ccc(N3CCOCC3)cc2OC)ncc1C(F)(F)F [Compound I-65, N-(2-((2-((2-Methoxy-4-morpholinophenyl)amino)-5-(trifluoromethyl)pyrimidin-4-yl)amino)phenyl)acrylamide] | E (provided a mass modification of ≧70%) |
| C=CC(=O)Nc1ccccc1Nc1nc(Nc2cc(C(=O)NOCCO)ccc2OC)ncc1C(F)(F)F [Compound I-74, 3-((4-((2-Acrylamidophenyl)amino)-5-(trifluoromethyl)pyrimidin-2-yl)amino)-N-(2-hydroxyethoxy)-4-methoxybenzamide] | E (provided a mass modification of ≧70%) |
| C=CC(=O)Nc1cc(C)ccc1Nc1nc(Nc2cc(OC)nc(N3CCOCC3)c2)ncc1C(F)(F)F [Compound I-94, N-(2-((2-((2-Methoxy-6-morpholinopyridin-4-yl)amino)-5-(trifluoromethyl)pyrimidin-4-yl)amino)-5-methylphenyl)acrylamide] | F (provided a mass modification of 31-69%) |
| C=CC(=O)Nc1ccccc1Nc1nc(Nc2cc(C(N)=O)c(OCCCNC(=O)C#CC)cc2C)ncc1Cl [Compound I-305, 5-((4-((2-acrylamidophenyl)amino)-5-chloropyrimidin-2-yl)amino)-2-(3-(but-2-ynamido)propoxy)-4-methylbenzamide] | E (provided a mass modification of ≧70%) |
| C=CC(=O)Nc1ccccc1Nc1nc(Nc2ccc(N3CCC[C@@H]3C(N)=O)cc2C#N)ncc1Cl [Compound I-179, (R)-1-(4-((4-((2-acrylamidophenyl)amino)-5-chloropyrimidin-2-yl)amino)-3-cyanophenyl)pyrrolidine-2-carboxamide] | E (provided a mass modification of ≧70%) |
| C=CC(=O)Nc1ccccc1Nc1nc(Nc2ccc(OCCCN3CCOCC3)cc2OC)ncc1C(N)=O [Compound I-254, 4-((2-acrylamidophenyl)amino)-2-((2-methoxy-4-(3-morpholinopropoxy)phenyl)amino)pyrimidine-5-carboxamide] | E (provided a mass modification of ≧70%) |
| C=CC(=O)N[C@@H]1CCCC[C@H]1Oc1nc(Nc2cc(C(N)=O)ccc2C)ncc1Cl (racemic) [Compound I-270, Rac-trans-3-((4-((2-acrylamidocyclohexyl)oxy)-5-chloropyrimidin-2-yl)amino)-4-methylbenzamide] | G (proived a mass modification ≦30%) |
| C=CC(=O)Nc1cc(C)ccc1Nc1nc(Nc2ncc(C(F)(F)F)c(OC)n2)ncc1C(F)(F)F [Compound I-354, N-(2-((2-((4-methoxy-5-(trifluoromethyl)pyrimidin-2-yl)amino)-5-(trifluoromethyl)pyrimidin-4-yl)amino)-5-methylphenyl)acrylamide] | E (provided a mass modification of ≧70%) |
| C=CC(=O)Nc1ccc(C)cc1Nc1nc(NC2CCC(=O)CC2)ncc1C(F)(F)F [Compound I-39, N-(4-Methyl-2-((2-((4-oxocyclohexyl)amino)-5-(trifluoromethyl)pyrimidin-4-yl)amino)phenyl)acrylamide] | E (provided a mass modification of ≧70%) |
| C=CC(=O)Nc1ccccc1Nc1nc(N[C@@H]2CCC[C@H](C(=O)NOC)C2)ncc1Cl (racemic) [Compound I-203, Rac-cis-3-((4-((2-acrylamidophenyl)amino)-5-chloropyrimidin-2-yl)amino)-N-methoxy-cyclohexanecarboxamide] | E (provided a mass modification of ≧70%) |
| C=C(C)C(=O)Nc1cc(F)ccc1Nc1nc(N[C@@H]2CCC[C@H](C(N)=O)C2)ncc1Cl (racemic) [Compound I-114, Rac-cis-3-((5-chloro-4-((4-fluoro-2-methacrylamidophenyl)amino)pyrimidin-2-yl)amino)cyclohexanecarboxamide] | F (provided a mass modification of 31-69%) |
| C=CC(=O)Nc1cc(OC)ccc1Nc1nc(Nc2ccc3c(c2)CC(=O)N3CC)ncc1Cl [Compound I-166, N-(2-((5-chloro-2-((1-ethyl-2-oxoindolin-5-yl)amino)pyrimidin-4-yl)amino)-5-methoxyphenyl)acrylamide] | E (provided a mass modification of ≧70%) |
| C#CC(=O)NCCCOc1cc(C)c(Nc2ncc(Cl)c(Nc3ccccc3NC(=O)C=C)n2)cc1C(N)=O [Compound I-227, 5-((4-((2-acrylamidophenyl)amino)-5-chloropyrimidin-2-yl)amino)-4-methyl-2-(3-propiolamidopropoxy)benzamide] | E (provided a mass modification of ≧70%) |
| C=CC(=O)N[C@@H]1CCCC[C@H]1Nc1nc(Nc2cc(C(N)=O)ccc2C)ncc1C(N)=O (racemic) [Compound I-255, Rac-trans-4-((2-acrylamidocyclohexyl)amino)-2-((5-carbamoyl-2-methylphenyl)amino)pyrimidine-5-carboxamide] | F (provided a mass modification of 31-69%) |
| C=CC(=O)Nc1cc(C)ccc1Nc1nc(Nc2cc(NC3CC3)nc(OC)c2)ncc1C(F)(F)F [Compound I-337, N-(2-((2-((2-(cyclopropylamino)-6-methoxypyridin-4-yl)amino)-5-(trifluoromethyl)pyrimidin-4-yl)amino)-5-methylphenyl)acrylamide] | E (provided a mass modification of ≧70%) |
| C=CC(=O)Nc1ccccc1Nc1nc(Nc2ccc(N3CCOCC3)cc2OC)ncc1C(=O)NCC [Compound I-251, 4-((2-acrylamidophenyl)amino)-N-ethyl-2-((2-methoxy-4-morpholinophenyl)amino)pyrimidine-5-carboxamide] | G (proived a mass modification ≦30%) |
| C=CC(=O)Nc1cc(C)ccc1Nc1nc(Nc2cc(OCCOC)ncc2C)ncc1C(F)(F)F [Compound I-359, N-(2-((2-((2-(2-methoxyethoxy)-5-methylpyridin-4-yl)amino)-5-(trifluoromethyl)pyrimidin-4-yl)amino)-5-methylphenyl)acrylamide] | E (provided a mass modification of ≧70%) |
| C=CC(=O)Nc1ccccc1Nc1nc(Nc2ccc(N(CC)C(C)=O)cc2OC)ncc1Cl [Compound I-155, N-(2-((5-chloro-2-((4-(N-ethylacetamido)-2-methoxyphenyl)amino)pyrimidin-4-yl)amino)phenyl)acrylamide] | E (provided a mass modification of ≧70%) |
| C=CC(=O)Nc1ccccc1Nc1nc(N[C@H]2CCCN(C(=O)[C@H](O)CO)C2)ncc1C(F)(F)F [Compound I-51, N-(2-((2-(((S)-1-((R)-2,3-Dihydroxypropanoyl)piperidin-3-yl)amino)-5-(trifluoromethyl)pyrimidin-4-yl)amino)phenyl)acrylamide] | E (provided a mass modification of ≧70%) |
| C=CC(=O)Nc1cc(C)ccc1Nc1nc(Nc2ccncc2C)ncc1Cl [Compound I-236, N-(2-((5-chloro-2-((3-methylpyridin-4-yl)amino)pyrimidin-4-yl)amino)-5-methylphenyl)acrylamide] | E (provided a mass modification of ≧70%) |
| O=C(CCl)N[C@@H]1CCCC[C@H]1Nc1nc(N[C@H]2CCCN(C(=O)CO)C2)ncc1C(F)(F)F [Compound I-35, 2-Chloro-N-((1R,2R)-2-((2-(((S)-1-(2-hydroxyacetyl)piperidin-3-yl)amino)-5-(trifluoromethyl)pyrimidin-4-yl)amino)cyclohexyl)acetamide] | G (proived a mass modification ≦30%) |
| C=CC(=O)Nc1ccccc1Nc1nc(Nc2ccc(N3CCOCC3)cc2OC)ncc1C(N)=O [Compound I-249, 4-((2-acrylamidophenyl)amino)-2-((2-methoxy-4-morpholinophenyl)amino)pyrimidine-5-carboxamide] | F (provided a mass modification of 31-69%) |
